The source of these data is patent publication US7144880B2, “Compositions relating to novel compounds and targets thereof” (Regents of the University of Michigan, priority 2003, dated 2006).

In series [1] the test system is ornithine decarboxylase (ODC). Nature of the series: ODC activity in treated cells, conversion of 3H-ornithine to putrescine. As to conditions: cells treated 4 h. The format is cell-based. Here is the method: In these experiments, the conversion of ornithine to putrescine was quantified using ^3H-ornithine. For comparisons, control cells were treated with vehicle control or difluoromethyl ornithine (DFMO), a potent inhibitor of ornithine decarboxylase (like Bz-423, DFMO is a potent anti-proliferative agent). […] The reduction in ODC activity was paralleled by a decrease in ODC protein levels measured under the same conditions.
As described above, Bz-423 induced apoptosis was signaled by an ROS response that arose from MRC complex III as a result of the state 3 to 4 transition. It was next sought to determine if the ROS response, critical for apoptosis, also mediated these effects on ODC. If the ROS was required for the decrease in ODC activity, it would likewise be implicated as potentially part of the anti-proliferative response to Bz-423. To test this, Ramos cells were treated with Bz-423, DFMO, or vehicle control for 4 h. In parallel, a second group of cells was pre-incubated with MnTBAP to limit the ROS and then cultured with Bz-423, DFMO, and vehicle control.

A further series concerns Ramos cells. Nature of the series: Cytotoxicity in media containing 10% FBS. Type of series: cell-based, human. From the text: Like most 1,4-benzodiazepines, Bz-423 binds strongly to bovine serum albumin (BSA), which reduces the effective concentration of drug free in solution. For example, in tissue culture media containing 10% (v/v) fetal bovine serum (FBS), ca. 99% of the drug is bound to BSA. […] Under these conditions, the dose response-curve is quite sharp such that there is a limited concentration range at which Bz-423 is only partly effective. Since some benzodiazepines are known to have anti-proliferative properties, the effect of Bz-423 at concentrations <ED50 were carefully analyzed and observed that in addition to inducing apoptosis, Bz-423 prevented cell growth after 3 d in culture. In these low serum conditions, the cytotoxic and anti-proliferative effects overlapped making it difficult to study each effect independently. […] While higher amounts of drug may also block proliferation, it caused apoptosis well before the effects on proliferation could be observed.

For the molecule `CN1C(=O)C(Cc2ccc3ccccc3c2)N=C(c2ccc(O)cc2)c2cc(Cl)ccc21` (stereo not drawn) [Bz-423], the “Effect on ODC activity” value in series [1] is recorded as “significantly reduced ODC activity”. Also, the Cytotoxicity entry in the series with Ramos cells (10–15 μM) was “minimal cytotoxicity”; in the series on Ramos cells (>20 μM) it was “only apoptosis was observed”.
